Where “and” joins values, the source holds several entries; their conditions need not be identical. Equal entries are not always repeated. Where two headings read alike, the source gives them in different places. Primed or numbered codes have the meaning given here. Where no end group is shown, it is not given here. The star is where a group is joined. (18F)FB = [18F] fluorobenzoyl group, O=C(c1ccc([18F])cc1)*; (18F)FB″ = [18F]fluorobenzoyl, O=C(c1ccc([18F])cc1)*; FB = fluorobenzoyl
Columns and labels:
αvβ6 integrin = molecular target: T1, αvβ6 integrin (Homo sapiens, UniProt P06756+P18564); assay: Competitive binding ELISA against biotinylated LAP (BtLAP), αvβ6 integrin
T1 construct: All purified integrins were purchased from R&D Systems (MN, USA); purchased R&D Systems (MN, USA)

[1] = 37° C., 1 hour, radio-HPLC
DX3puroβ6 (αvβ6+) cells = assay: [18F]-radiolabeled peptide cell binding and internalization, DX3puroβ6 (αvβ6+) cells; format: cell-based, human; details: for binding to DX3puroβ6 (αvβ6+) cells: % of total activity, 37° C.
[2] = Circular dichroism (CD) spectroscopy; format: physicochemical; details: for % Helical Content CD Buffer: 25 mM phosphate + 100 mM NaF; for % Helical Content CD Buffer + 30% TFE: buffer with 30% trifluoroethanol

T1 sequence (P06756 31-992 limits assumed): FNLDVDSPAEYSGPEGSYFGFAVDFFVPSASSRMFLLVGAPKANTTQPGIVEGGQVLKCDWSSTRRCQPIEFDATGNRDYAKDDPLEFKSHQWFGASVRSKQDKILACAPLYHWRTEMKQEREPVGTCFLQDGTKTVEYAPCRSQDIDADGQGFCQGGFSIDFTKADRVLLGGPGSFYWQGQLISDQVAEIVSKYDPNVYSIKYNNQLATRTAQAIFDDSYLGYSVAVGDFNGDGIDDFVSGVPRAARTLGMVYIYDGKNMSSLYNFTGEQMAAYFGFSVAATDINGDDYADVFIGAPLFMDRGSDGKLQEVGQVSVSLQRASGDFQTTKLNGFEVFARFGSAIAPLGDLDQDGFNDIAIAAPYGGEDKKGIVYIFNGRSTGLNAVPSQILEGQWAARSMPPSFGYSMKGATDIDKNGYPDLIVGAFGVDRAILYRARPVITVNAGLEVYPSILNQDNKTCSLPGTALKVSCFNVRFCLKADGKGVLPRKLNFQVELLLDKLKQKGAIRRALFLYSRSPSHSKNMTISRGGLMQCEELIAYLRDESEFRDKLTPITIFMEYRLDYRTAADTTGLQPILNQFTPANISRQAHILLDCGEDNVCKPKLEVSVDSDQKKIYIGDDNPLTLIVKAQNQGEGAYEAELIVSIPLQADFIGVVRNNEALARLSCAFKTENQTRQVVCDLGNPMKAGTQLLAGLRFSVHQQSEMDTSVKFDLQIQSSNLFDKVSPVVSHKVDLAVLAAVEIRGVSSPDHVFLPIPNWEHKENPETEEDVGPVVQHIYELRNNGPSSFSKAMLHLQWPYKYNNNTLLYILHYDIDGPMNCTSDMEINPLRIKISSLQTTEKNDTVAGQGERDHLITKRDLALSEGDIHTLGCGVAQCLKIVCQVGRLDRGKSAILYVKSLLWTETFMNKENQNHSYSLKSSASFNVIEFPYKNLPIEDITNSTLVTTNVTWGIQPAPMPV
T1 sequence (P18564 22-707 limits assumed): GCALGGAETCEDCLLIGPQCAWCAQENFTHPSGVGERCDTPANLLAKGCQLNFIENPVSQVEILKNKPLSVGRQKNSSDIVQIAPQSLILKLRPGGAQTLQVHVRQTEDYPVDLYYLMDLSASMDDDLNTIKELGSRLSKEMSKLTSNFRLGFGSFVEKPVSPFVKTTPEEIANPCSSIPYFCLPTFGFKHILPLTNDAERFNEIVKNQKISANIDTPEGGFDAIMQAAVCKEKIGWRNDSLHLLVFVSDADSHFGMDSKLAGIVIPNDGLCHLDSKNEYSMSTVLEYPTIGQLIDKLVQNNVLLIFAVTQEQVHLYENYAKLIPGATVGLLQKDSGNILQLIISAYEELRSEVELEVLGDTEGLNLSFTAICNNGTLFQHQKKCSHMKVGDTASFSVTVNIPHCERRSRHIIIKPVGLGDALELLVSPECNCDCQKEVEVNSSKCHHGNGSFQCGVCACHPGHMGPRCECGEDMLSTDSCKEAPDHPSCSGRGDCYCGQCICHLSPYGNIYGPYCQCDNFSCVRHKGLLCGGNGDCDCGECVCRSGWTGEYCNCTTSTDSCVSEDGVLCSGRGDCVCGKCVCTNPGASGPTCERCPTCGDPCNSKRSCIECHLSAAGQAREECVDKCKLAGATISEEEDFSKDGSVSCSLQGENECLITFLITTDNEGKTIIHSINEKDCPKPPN

For `CC(C)C[C@H](NC(=O)[C@H](Cc1ccc(O)cc1)NC(=O)[C@@H](NC(=O)[C@H](CC(C)C)NC(=O)[C@H](CC(=O)O)NC(=O)CNC(=O)[C@@H](NC(=O)CCOCCOCCOCCOCCOCCOCCOCCOCCOCCOCCOCCOCCOCCOCCOCCOCCOCCOCCOCCOCCOCCOCCOCCOCCOCCOCCOCCOCCNC(=O)c1ccc(F)cc1)C(C)C)[C@@H](C)O)C(=O)N[C@@H](CCCCN)C(=O)N[C@@H](CCC(N)=O)C(=O)N[C@@H](CCCCN)C(=O)N[C@H](C(=O)N[C@@H](C)C(=O)N[C@@H](CCCNC(=N)N)C(=O)N[C@H](C(=O)NCCOCCOCCOCCOCCOCCOCCOCCOCCOCCOCCOCCOCCOCCOCCOCCOCCOCCOCCOCCOCCOCCOCCOCCOCCOCCOCCOCCOCCC(N)=O)[C@@H](C)O)C(C)C` [T1-e], the “fold drop in affinity for αvβ6” value (αvβ6 integrin; compared to T1) was 39 fold.
With `CC(C)C[C@H](NC(=O)[C@H](Cc1ccc(O)cc1)NC(=O)[C@@H](NC(=O)[C@H](CC(C)C)NC(=O)[C@H](CC(=O)O)NC(=O)CNC(=O)[C@@H](NC(=O)c1ccc(CNC(=O)CCOCCOCCOCCOCCOCCOCCOCCOCCOCCOCCOCCOCCOCCOCCOCCOCCOCCOCCOCCOCCOCCOCCOCCOCCOCCOCCOCCOCCNC(=O)c2ccc(F)cc2)cc1)C(C)C)[C@@H](C)O)C(=O)N[C@@H](CCCCN)C(=O)N[C@@H](CCC(N)=O)C(=O)N[C@@H](CCCCN)C(=O)N[C@H](C(=O)N[C@@H](C)C(=O)N[C@@H](CCCNC(=N)N)C(=O)N[C@H](C(=O)NCCOCCOCCOCCOCCOCCOCCOCCOCCOCCOCCOCCOCCOCCOCCOCCOCCOCCOCCOCCOCCOCCOCCOCCOCCOCCOCCOCCOCCC(N)=O)[C@@H](C)O)C(C)C` [T1-g] the “fold higher binding to αvβ6-integrin” value (αvβ6 integrin; ELISA, compared to T1-e) was 2 fold.
In the case of `CC(C)C[C@H](NC(=O)[C@H](Cc1ccc(O)cc1)NC(=O)[C@@H](NC(=O)[C@H](CC(C)C)NC(=O)[C@H](CC(=O)O)NC(=O)CNC(=O)[C@@H](NC(=O)c1ccc(F)cc1)C(C)C)[C@@H](C)O)C(=O)N[C@@H](CCCCN)C(=O)N[C@@H](CCC(N)=O)C(=O)N[C@@H](CCCCN)C(=O)N[C@H](C(=O)N[C@@H](C)C(=O)N[C@@H](CCCNC(=N)N)C(=O)N[C@H](C(=O)NCCOCCOCCOCCOCCOCCOCCOCCOCCOCCOCCOCCOCCOCCOCCOCCOCCOCCOCCOCCOCCOCCOCCOCCOCCOCCOCCOCCOCCC(N)=O)[C@@H](C)O)C(C)C` [T1], the “intact peptide in mouse serum” value [1] is reported as 61%, the “DX3puroβ6 (αvβ6+)/DX3puro (αvβ6−) selectivity ratio” value (DX3puroβ6 (αvβ6+) cells) is reported as 41.7±5.3 :1 and the “binding to DX3puroβ6 (αvβ6+) cells” value (DX3puroβ6 (αvβ6+) cells; 1 hour) is reported as 18.1±0.8%.
With “FB-RGDLQVLA ({FB}-RGDLQVLA) [A20-8mer, reference compound]” the “DX3puroβ6 (αvβ6+)/DX3puro (αvβ6−) selectivity ratio” value (DX3puroβ6 (αvβ6+) cells; cell binding, 1 hour) was 7.8±0.5 :1, the “% Helical Content CD Buffer” value [2] was 6.7% and the “% Helical Content CD Buffer + 30% TFE” value [2] was 6.9%.
For “FB-RGDLQVLAQKVART [A20-14mer, reference compound]”, the “DX3puroβ6 (αvβ6+)/DX3puro (αvβ6−) selectivity ratio” value (DX3puroβ6 (αvβ6+) cells; cell binding, 1 hour) was 8.4±0.4 :1, the “% Helical Content CD Buffer” value [2] was 15.1% and the “% Helical Content CD Buffer + 30% TFE” value [2] was 35.7%.
In the case of “[^18F]FB-RSDLTPLF ({(18F)FB}-RSDLTPLF) [N-[^18F]KL3]”, the “percent internalized relative to the amount bound to DX3puroβ6 (αvβ6+) cells” value (DX3puroβ6 (αvβ6+) cells; 1 hour) is reported as 23.5±4.7% and the “binding to DX3puroβ6 (αvβ6+) cells” value (DX3puroβ6 (αvβ6+) cells; 1 hour) is reported as 0.7±0.2%.
With “[^18F]FB-RSDLTPLFQKVART ({(18F)FB″}-RSDLTPLFQKVART) [N-[^18F]KL3Q]” the “percent internalized relative to the amount bound to DX3puroβ6 (αvβ6+) cells” value (DX3puroβ6 (αvβ6+) cells; 1 hour) was 22.8±1.3%, the “binding to DX3puroβ6 (αvβ6+) cells” value (DX3puroβ6 (αvβ6+) cells; 1 hour) was 1.3±0.1% and the “fold increase in cell binding” value (DX3puroβ6 (αvβ6+) cells; compared to N-[18F]KL3) was 2 fold.
In the case of “[^18F]FB-VGDLTYLKKKVART ({(18F)FB″}-VGDLTYLKKKVART) [N-[^18F]P1K-b]”, the “binding to DX3puroβ6 (αvβ6+) cells” value (DX3puroβ6 (αvβ6+) cells; 1 hour) is reported as 7.9±0.7%.
For “[^18F]FB-VGDLTYLKQKVART ({(18F)FB″}-VGDLTYLKQKVART) [N-[^18F]P1Q]”, the “percent internalized relative to the amount bound to DX3puroβ6 (αvβ6+) cells” value (DX3puroβ6 (αvβ6+) cells; 1 hour) was 10.2±1.2% and the “binding to DX3puroβ6 (αvβ6+) cells” value (DX3puroβ6 (αvβ6+) cells; 1 hour) was 5.6±0.2% and 2.1±0.2% and 5.6%.
For “[^18F]FB-VGDLTYLKRKATVQ ({(18F)FB″}-VGDLTYLKRKATVQ) [N-[^18F]P1Q-Scrb]”, the “DX3puroβ6 (αvβ6+)/DX3puro (αvβ6−) selectivity ratio” value (DX3puroβ6 (αvβ6+) cells) was 1.7±0.06 :1 and the “binding to DX3puroβ6 (αvβ6+) cells” value (DX3puroβ6 (αvβ6+) cells; 1 hour) was 2.1±0.2%.
